# Reference: the supplement of paper PMC11451515
# Test system: SEM cells
# Assay: cell viability relative to DMSO control; higher = less cytotoxic
# Details: 48 h
# How it was run: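 NOMO1, SEM and P12-Ichikawa leukemia cells spent at least four passages adapting to each medium before use. They were seeded at 500 cells/well (NOMO1, SEM) or 1000 cells/well (P12-Ichikawa) in 5 μl in 1536-well plates and pin-dosed with library compounds in DMSO at 11 threefold steps from 47 μM down to 0.79 nM. After 48 h at 37°C, CellTiter-Glo One luminescence was read. Viability is reported as a percentage of the DMSO wells on each plate, with cell-free wells as background.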
# [1] = HPLM + 10% dialyzed FBS, 0.000781 µM
# [2] = HPLM + 10% dialyzed FBS, 0.00234 µM
# [3] = HPLM + 10% dialyzed FBS, 0.00702 µM
# [4] = HPLM + 10% dialyzed FBS, 0.0211 µM
# [5] = HPLM + 10% dialyzed FBS, 0.0632 µM
# [6] = HPLM + 10% dialyzed FBS, 0.19 µM
# [7] = HPLM + 10% dialyzed FBS, 0.569 µM
# [8] = HPLM + 10% dialyzed FBS, 1.71 µM
# [9] = HPLM + 10% dialyzed FBS, 5.12 µM
# [10] = HPLM + 10% dialyzed FBS, 15.4 µM
# [11] = HPLM + 10% dialyzed FBS, 46.1 µM
# [12] = RPMI 5 mM glucose + 10% FBS, 0.000781 µM
# [13] = RPMI 5 mM glucose + 10% FBS, 0.00234 µM
# [14] = RPMI 5 mM glucose + 10% FBS, 0.00702 µM
# [15] = RPMI 5 mM glucose + 10% FBS, 0.0211 µM
# [16] = RPMI 5 mM glucose + 10% FBS, 0.0632 µM
# [17] = RPMI 5 mM glucose + 10% FBS, 0.19 µM
# [18] = RPMI 5 mM glucose + 10% FBS, 0.569 µM
# [19] = RPMI 5 mM glucose + 10% FBS, 1.71 µM
# [20] = RPMI 5 mM glucose + 10% FBS, 5.12 µM
# [21] = RPMI 5 mM glucose + 10% FBS, 15.4 µM
# [22] = RPMI 5 mM glucose + 10% FBS, 46.1 µM
# [23] = RPMI 5 mM glucose + 10% dialyzed FBS, 0.000781 µM
# [24] = RPMI 5 mM glucose + 10% dialyzed FBS, 0.00234 µM
# [25] = RPMI 5 mM glucose + 10% dialyzed FBS, 0.00702 µM
# [26] = RPMI 5 mM glucose + 10% dialyzed FBS, 0.0211 µM
# [27] = RPMI 5 mM glucose + 10% dialyzed FBS, 0.0632 µM
# [28] = RPMI 5 mM glucose + 10% dialyzed FBS, 0.19 µM
# [29] = RPMI 5 mM glucose + 10% dialyzed FBS, 0.569 µM
# [30] = RPMI 5 mM glucose + 10% dialyzed FBS, 1.71 µM
# [31] = RPMI 5 mM glucose + 10% dialyzed FBS, 5.12 µM
# [32] = RPMI 5 mM glucose + 10% dialyzed FBS, 15.4 µM
# [33] = RPMI 5 mM glucose + 10% dialyzed FBS, 46.1 µM
SMILES,cell viability [1] [%],cell viability [2] [%],cell viability [3] [%],cell viability [4] [%],cell viability [5] [%],cell viability [6] [%],cell viability [7] [%],cell viability [8] [%],cell viability [9] [%],cell viability [10] [%],cell viability [11] [%],cell viability [12] [%],cell viability [13] [%],cell viability [14] [%],cell viability [15] [%],cell viability [16] [%],cell viability [17] [%],cell viability [18] [%],cell viability [19] [%],cell viability [20] [%],cell viability [21] [%],cell viability [22] [%],cell viability [23] [%],cell viability [24] [%],cell viability [25] [%],cell viability [26] [%],cell viability [27] [%],cell viability [28] [%],cell viability [29] [%],cell viability [30] [%],cell viability [31] [%],cell viability [32] [%],cell viability [33] [%]
ClC1=C(N\C2=N\CCN2)C3=NSN=C3C=C1,77.6,91.6,107,69.7,97.8,105,102,111,115,116,113,93.7,111,115,74.6,121,114,114,109,117,126,126,94.2,105,110,69.1,120,122,129,121,118,137,137
CC(C)[C@@H](N(CCCN)C(=O)C1=CC=C(C)C=C1)C/2=N/C3=CC(=CC=C3C(=O)N2CC4=CC=CC=C4)Cl,84.5,21,20.5,19.5,16,20.4,19.5,20.2,21.9,21.2,21.9,103,16.5,14.8,14,15.9,15,12.3,13.7,16.8,16.2,11.6,80,19.8,16.2,15.7,16.4,14.4,17.5,14.8,16.4,17.2,13.2
CC(=O)O[C@H]1C(=O)[C@]2(C)[C@@H](O)C[C@H]3OC[C@@]3(OC(C)=O)C2[C@H](OC(=O)C4=CC=CC=C4)[C@]5(O)C[C@H](OC(=O)[C@H](O)[C@@H](NC(=O)C6=CC=CC=C6)C7=CC=CC=C7)\C(=C1/C5(C)C)C (stereo not given in full),81.5,50,31.7,27.9,27.8,26.4,26.8,24.1,26.8,22.6,25.9,59.1,30.5,22.3,17,16.2,14.2,16.3,15.7,15.6,15.6,13.5,81.3,48.1,35.2,26.3,24.2,23.3,22.8,22.3,22.4,23.9,22.3
CC1(C)Cc2c(-c3ccccc3)c(-c3ccc(Cl)cc3)c(CC(=O)O)n2C1,116,124,116,129,126,106,124,91.9,124,112,95.1,116,120,129,122,110,96.3,105,92.8,110,101,90.7,,,,,,,,,,,
Oc1ccc2c3c1O[C@H]1c4[nH]c5c(c4C[C@@]4(O)[C@@H](C2)N(CC2CC2)CC[C@]314)C[C@@]1(O)[C@H]2Cc3ccc(O)c4c3[C@@]1(CCN2CC1CC1)[C@H]5O4,70.3,88.3,101,92.6,108,99.4,98.4,107,113,113,119,86.9,80.2,102,85.7,123,119,123,128,131,119,123,89.5,92.6,104,80.3,107,106,111,107,98.4,99.6,113
COC1CCC(CC1)N(C(=O)C2CCC(C)CC2)C3=C(SC(=C3)\C4=C\CCCC4)C(O)=O (stereo not given),111,120,119,117,113,117,104,115,112,84.9,72.1,114,111,124,128,144,134,122,121,121,82.2,73.5,116,114,112,128,138,108,120,137,104,75.3,68
CC(C)(C)c1cc(NC(=O)Nc2ccc(-c3cn4c(n3)sc3cc(OCCN5CCOCC5)ccc34)cc2)no1,66.8,53.7,45.8,44.3,32.2,38.2,46.6,30,30.1,26.1,27.8,80.9,61.9,67.7,49.8,42.1,46.3,49.3,38.9,43.4,33.5,27.8,74.2,49.4,51.3,36.6,30.4,36,31.3,33.6,27.5,23.5,24.6
